Experimental data: publication PMC3927924, “Bisubstrate UDP–peptide conjugates as human O-GlcNAc transferase inhibitors” (Biochemical Journal, 2014)
Entries after “also recorded” stand apart in the source; their conditions may differ. Where a SMILES comes first, the peptide text is derived from it. Where no end group is shown, it is not given here. Side-chain parts run from the residue outwards. The star is where a group is joined. Propyl(3-UDP) = O=c1ccn([C@@H]2O[C@H](COP(=O)(O)OP(=O)(O)OCCC*)[C@@H](O)[C@H]2O)c(=O)[nH]1; X1 = O=c1ccn([C@@H]2O[C@H](COP(=O)(O)OP(=O)(O)OCCCC*)[C@@H](O)[C@H]2O)c(=O)[nH]1; C3 linker = three-carbon linker from the acceptor serine to UDP; C4 linker = four-carbon linker from the acceptor serine to UDP

Legend:
[1] = target: T1, SmNodC (Sinorhizobium meliloti NodC) (Rhizobium meliloti, UniProt P04341); assay: Coupled fluorigenic in vitro assay of GlcNAc transferase SmNodC; assay type: biochemical; details: 1 mM–0.46 μM compound
T1 sequence (P04341 1-426): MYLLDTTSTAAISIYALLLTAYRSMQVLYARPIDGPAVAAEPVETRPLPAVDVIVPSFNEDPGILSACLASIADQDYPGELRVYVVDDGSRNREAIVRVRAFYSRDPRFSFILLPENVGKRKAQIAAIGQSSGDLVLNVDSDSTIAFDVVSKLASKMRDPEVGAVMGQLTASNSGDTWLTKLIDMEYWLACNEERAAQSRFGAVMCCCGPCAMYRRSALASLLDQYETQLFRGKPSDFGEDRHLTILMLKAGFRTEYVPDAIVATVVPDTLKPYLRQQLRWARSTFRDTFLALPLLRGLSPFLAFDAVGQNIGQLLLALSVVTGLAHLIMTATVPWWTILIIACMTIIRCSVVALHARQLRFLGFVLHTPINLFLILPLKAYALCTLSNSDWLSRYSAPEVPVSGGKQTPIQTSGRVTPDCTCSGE
Experimental: Figure S4 The bacterial GlcNAc transferase NodC is not inhibited by goblin1 7.27–7.20 (m, 4H), 7.16 (t, J 8.2 Hz, 4H), 6.31 (d, J 8.2 Hz, 1H), Sm NodC, a GlcNAc transferase from Sinorhizobium meliloti that utilizes UDP-GlcNAc to 5.11–4.95 (m, 4H), 4.61 (dt, J 8.2, 3.0 Hz, 1H), 4.41 (dd, J 10.5, synthesize chito-oligosaccharides, was assayed to investigate the selectivity of goblin1. A 7.2 Hz, 1H), 4.31 (dd, J 10.5, 7.5 Hz, 1H), 4.24–4.14 (m, 2H), coupled ﬂuorigenic in vitro assay was performed in the presence of 1 mM–0.46 μM of goblin1, 4.10 (dq, J 11.2, 5.9 Hz, 1H), 3.92 (dd, J 9.5, 3.3 Hz, 1H), 3.79 12, 17 and UDP. The assay (details available from D. M. F. v. A. on request) relies on (dd, J 9.5, 2.9 Hz, 1H), 3.58 (dt, J 10.4, 5.4 Hz, 1H), 3.47 (dt, the elongation of 4-methylumbellifer yl-N -acetyl-β 1,4-glucosamine by the GlcNAc transferase J 9.8, 6.0 Hz, 1H), 2.37 (s, 3H), 2.35 (s, 3H), 1.8 (m, 1H), 1.7 Sm NodC, and subsequent hydrolysis of the reaction products by Aspergillus fumigatus chitinase (m, 1H), 1.60 (m, 2H); 13 C NMR (126 MHz, [2 H]chloroform) […]
4-parameter IC50 equation in the GraphPad Prism program (http://www.graphpad.com). […]
Beamline, wavelength (A˚) ID 23-1, 0.981ture was stirred for 16 h at room temperature. The reaction Space group P 321was quenched by the addition of methanol, stirred for 30 min Cell dimensions˚) 273.7, 142.6and concentrated. The residue was partitioned between ethyl […]
Resolution (A acetate and 10 % aqueous citric acid solution and the layers R merge 0.136 (0.505)were separated. The organic layer was washed successively with I /σ I 9.2 (3.1)water and a mixture of saturated NaHCO3 solution and brine.
Completeness (%) 99.2 (99.7)The aqueous layer was additionally extracted with the same Redundancy 4.3 (4.5)portion of ethyl acetate. The combined organic layer was dried and Reﬁnement ˚) 30–3.15concentrated. The residue was puriﬁed by ﬂash chromatography […]

hOGT [2] = target: hOGT; parameters: method as in PMID 23103942; details: cited from earlier work
hOGT [3] = target: hOGT; parameters: method as in PMID 21258330; details: read-out: Ki for hOGT in vitro; cited from earlier work
hOGT-(312–1031) [4] = target: T2, hOGT-(312–1031) (Homo sapiens, UniProt O15294); assay: In vitro glycosylation of peptide substrate KKENSPAVTPVSTA by hOGT, fluorimetric UDP detection; assay type: biochemical; details: 10 μM peptide KKENSPAVTPVSTA, 3.2 μM UDP-GlcNAc, 50 nM hOGT
T2 construct: Reactions contained 50 nM hOGT-(312–1031) in 50 mM Tris/HCl; made in house
T2 sequence (O15294 312-1031 isoform O15294-3): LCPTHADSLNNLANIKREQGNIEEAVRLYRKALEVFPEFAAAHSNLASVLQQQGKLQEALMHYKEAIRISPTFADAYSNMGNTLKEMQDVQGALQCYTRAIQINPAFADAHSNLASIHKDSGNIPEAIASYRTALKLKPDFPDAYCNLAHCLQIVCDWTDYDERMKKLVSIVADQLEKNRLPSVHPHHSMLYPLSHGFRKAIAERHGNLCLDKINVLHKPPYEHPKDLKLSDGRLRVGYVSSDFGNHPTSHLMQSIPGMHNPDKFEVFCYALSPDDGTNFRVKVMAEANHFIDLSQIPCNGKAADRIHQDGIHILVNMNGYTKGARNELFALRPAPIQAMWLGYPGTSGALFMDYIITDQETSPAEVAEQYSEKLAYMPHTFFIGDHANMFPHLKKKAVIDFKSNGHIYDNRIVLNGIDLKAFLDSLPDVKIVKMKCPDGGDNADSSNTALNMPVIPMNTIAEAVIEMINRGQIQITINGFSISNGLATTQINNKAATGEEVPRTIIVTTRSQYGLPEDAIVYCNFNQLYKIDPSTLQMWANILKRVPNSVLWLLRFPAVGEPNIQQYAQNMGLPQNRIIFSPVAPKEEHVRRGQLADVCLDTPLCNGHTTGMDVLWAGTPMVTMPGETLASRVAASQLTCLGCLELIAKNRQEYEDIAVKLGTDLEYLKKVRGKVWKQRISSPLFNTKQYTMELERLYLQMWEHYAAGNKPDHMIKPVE
Experimental: Reactions contained 50 nM hOGT-(312–1031) in 50 mM Tris/HCl (pH 7.5), 0.1 mg/ml BSA, 10 μM sodium dithionate and 10 μM peptide (KKENSPAVTPVSTA) and various amounts of inhibitors in a total volume of 100 μl. Reaction mixtures were pre-incubated for 15 min and started by addition of UDP-GlcNAc to a final concentration of 3.2 μM. After 30 min of incubation at 22°C, assays were stopped by adding 200 μl of 25 mM Hepes (pH 7.4), 10 mM NaCl, 50% (v/v) methanol and 15 μM fluorophore, a UDP-sensitive xanthene-based Zn(II) complex prepared as described in [19, 20]. Product formation was detected fluorimetrically on a Gemini EM fluorescence microplate reader (Molecular Devices) at excitation and emission wavelengths of 485 nm and 530 nm respectively. A non-linear regression curve fit was performed with Prism.

hOGT-(312–1031) [5] = target: T2, hOGT-(312–1031); assay: In vitro glycosylation of hTAB1 by hOGT, Western blot with TAB1-gSer395 antibody and densitometry; assay type: biochemical; details: 1 μM TAB1-(7–402), 10 μM UDP-GlcNAc, Western blot densitometric quantification; read-out: IC50, O-GlcNAcylation of substrate protein TAB1
Experimental: Reaction mixtures containing 1 μM TAB1-(7–402) protein [TAB1 is TGF (transforming growth factor)-β-activated kinase-binding protein 1] (purified as described previously), 0.125 μM hOGT-(312–1031) and 10 μM UDP-GlcNAc in a buffer of 50 mM Tris/HCl (pH 7.5) and 1 mM DTT were incubated at 37°C for 90 min, separated by SDS/PAGE (10% gels) and transferred on to nitrocellulose membranes. Membranes were probed with a TAB1-gSer^395 (O-GlcNAcylated Ser^395) O-GlcNAc site-specific antibody, followed by an IR800-labelled secondary antibody and analysed using a LI-COR Odyssey scanner and associated quantification software. Data were fitted to a four-parameter equation for dose-dependent inhibition using GraphPad Prism 5.0.

hOGT-(312–1031) [6] = target: T2, hOGT-(312–1031); assay: Biolayer interferometry binding to immobilized biotinylated hOGT-(312-1031); details: 25°C
Experimental: Measurements were made on a ForteBio Octet RED384 instrument at 25°C. Biotinylated hOGT-(312–1031) was prepared at 25 μg/ml in TBS (25 mM Tris/HCl, pH 7.5, and 150 mM NaCl) buffer containing 1 mM DTT and immobilized on superstreptavidin biosensors. Free streptavidin sites were blocked by incubation with biocytin. A parallel set of superstreptavidin biosensors were prepared with biotinylated streptavidin to act as a control. The assay was carried out in 384-well plates with a sample volume of 100 μl. Inhibitor solutions were prepared from solid stocks and dissolved in assay buffer and a concentration series of 3-fold dilutions from a top concentration of 100 μM was created. Cycles for analysis involved obtaining a 30 s baseline followed by a 60 s association step and a 120 s dissociation step. The assay was repeated with the reference biosensors to correct for non-specific interactions and the entire assay was repeated in triplicate for both compounds. Data were processed and kinetic parameters were calculated using ForteBio software.

[7] = target: T3, goblin2 (UDP-peptide conjugate 14b); assay: biolayer interferometry
T3 chain: VTPVS([C4 linker-UDP])TA-NH2

[8] = target: T4, goblin1 (UDP-peptide conjugate 14a); assay: biolayer interferometry
T4 chain: VTPVS([C3 linker-UDP])TA-NH2

O=c1ccn([C@@H]2O[C@H](COP(=O)(O)OP(=O)(O)O)[C@@H](O)[C@H]2O)c(=O)[nH]1 [UDP, reference compound]
IC50 [1]: 90 µM | Kd (hOGT [2]): 0.5 µM

CC(=O)N[C@@H]1[C@@H](O)[C@H](O)[C@@H](CO)S[C@@H]1OP(=O)(O)OP(=O)(O)OC[C@H]1O[C@@H](n2ccc(=O)[nH]c2=O)[C@H](O)[C@@H]1O [UDP-5S-GlcNAc]
Ki (hOGT [3]): 8 µM

CC(=O)N[C@H]1[C@@H](OP(=O)(O)OP(=O)(O)OC[C@H]2O[C@@H](n3ccc(=O)[nH]c3=O)[C@H](O)[C@@H]2O)O[C@H](CO)[C@@H](O)[C@@H]1O [UDP-GlcNAc]
fold higher Kd than for UDP (hOGT [2]; biophysical determination): 30 fold

COCCCOP(=O)(O)OP(=O)(O)OC[C@H]1O[C@@H](n2ccc(=O)[nH]c2=O)[C@H](O)[C@@H]1O [compound 17]
IC50 (hOGT-(312–1031) [4]): 300 µM | SmNodC inhibition [1]: not inhibited

CC(=O)N[C@H](C(=O)N[C@H](C(=O)N1CCC[C@H]1C(=O)N[C@H](C(=O)N[C@@H](COCCCOP(=O)(O)OP(=O)(O)OC[C@H]1O[C@@H](n2ccc(=O)[nH]c2=O)[C@H](O)[C@@H]1O)C(=O)N[C@H](C(=O)N[C@@H](C)C(N)=O)[C@@H](C)O)C(C)C)[C@@H](C)O)C(C)C [goblin1] (Ac-VTPVS(Propyl(3-UDP))TA-NH2)
IC50 (hOGT-(312–1031) [4]): 18 µM | IC50 (hOGT-(312–1031) [5]): 8 µM | Kd (hOGT-(312–1031) [6]): 7.9 µM | SmNodC inhibition [1]: not an inhibitor; also recorded: not inhibited

CC(=O)N[C@H](C(=O)N[C@H](C(=O)N1CCC[C@H]1C(=O)N[C@H](C(=O)N[C@@H](COCCCCOP(=O)(O)OP(=O)(O)OC[C@H]1O[C@@H](n2ccc(=O)[nH]c2=O)[C@H](O)[C@@H]1O)C(=O)N[C@H](C(=O)N[C@@H](C)C(N)=O)[C@@H](C)O)C(C)C)[C@@H](C)O)C(C)C [goblin2] (Ac-VTPVS(X1)TA-NH2)
IC50 (hOGT-(312–1031) [4]): 40 µM | Kd (hOGT-(312–1031) [6]): 4.9 µM

B1: O-GlcNAc transferase (hOGT) 312-1031 (protein)
chain: AEDCYNTALRLCPTHADSLNNLANIKREQGNIEEAVRLYRKALEVFPEFAAAHSNLASVLQQQGKLQEALMHYKEAIRISPTFADAYSNMGNTLKEMQDVQGALQCYTRAIQINPAFADAHSNLASIHKDSGNIPEAIASYRTALKLKPDFPDAYCNLAHCLQIVCDWTDYDERMKKLVSIVADQLEKNRLPSVHPHHSMLYPLSHGFRKAIAERHGNLCLDKINVLHKPPYEHPKDLKLSDGRLRVGYVSSDFGNHPTSHLMQSIPGMHNPDKFEVFCYALSPDDGTNFRVKVMAEANHFIDLSQIPCNGKAADRIHQDGIHILVNMNGYTKGARNELFALRPAPIQAMWLGYPGTSGALFMDYIITDQETSPAEVAEQYSEKLAYMPHTFFIGDHANMFPHLKKKAVIDFKSNGHIYDNRIVLNGIDLKAFLDSLPDVKIVKMKCPDGGDNADSSNTALNMPVIPMNTIAEAVIEMINRGQIQITINGFSISNGLATTQINNKAATGEEVPRTIIVTTRSQYGLPEDAIVYCNFNQLYKIDPSTLQMWANILKRVPNSVLWLLRFPAVGEPNIQQYAQNMGLPQNRIIFSPVAPKEEHVRRGQLADVCLDTPLCNGHTTGMDVLWAGTPMVTMPGETLASRVAASQLTCLGCLELIAKNRQEYEDIAVKLGTDLEYLKKVRGKVWKQRISSPLFNTKQYTMELERLYLQMWEHYAAGN
Kd [7]: 4.9 µM | Kd [8]: 7.9 µM
